The text below walks through data of patent US11046725B2, “Galactoside inhibitor of galectins” (GALECTO BIOTECH AB, priority 2018, dated 2021).

For one experiment, the target named is Galectin-1 (Homo sapiens (Human), UniProt P09382). As to the kind of experiment: Fluorescence anisotropy assay, inhibition of galectin / fluorescein tagged saccharide probe interaction. In kind it is binding. For orientation: In fluorescence polarisation assays a small probe gives low polarisation when free and higher when bound to something large.
A further experiment concerns the target Galectin-3 (Homo sapiens (Human), UniProt P17931). The description is as above. The experiment is classed as binding. As for the experimental part:
Experimental Procedures (Evaluation of Kd Values)
The affinity of Example 1-33 for galectins were determined by a fluorescence anisotropy assay where the compound was used as an inhibitor of the interaction between galectin and a fluorescein tagged saccharide probe as described Sörme, P., Kahl-Knutsson, B., Huflejt, M., Nilsson, U. J., and Leffler H. (2004) Fluorescence polarization as an analytical tool to evaluate galectin-ligand interactions. Anal. Biochem. 334: 36-47, (Sörme et al., 2004) and Monovalent interactions of Galectin-1 By Salomonsson, Emma; Larumbe, Amaia; Tejler, Johan; Tullberg, Erik; Rydberg, Hanna; Sundin, Anders; Khabut, Areej; Frejd, Torbjorn; Lobsanov, Yuri D.; Rini, James M.; et al, From Biochemistry (2010), 49(44), 9518-9532, (Salomonsson et al., 2010).

As usually defined, the Kd is the free concentration of one partner at which half of the binding sites on the other are occupied at equilibrium, for simple one-to-one binding.

Chain of Galectin-1 (P09382 whole entry): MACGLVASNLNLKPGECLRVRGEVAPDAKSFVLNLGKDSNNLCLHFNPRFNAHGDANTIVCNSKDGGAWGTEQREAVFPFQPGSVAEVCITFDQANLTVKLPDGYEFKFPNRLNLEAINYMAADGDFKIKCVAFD
Chain of Galectin-3 (P17931 whole entry): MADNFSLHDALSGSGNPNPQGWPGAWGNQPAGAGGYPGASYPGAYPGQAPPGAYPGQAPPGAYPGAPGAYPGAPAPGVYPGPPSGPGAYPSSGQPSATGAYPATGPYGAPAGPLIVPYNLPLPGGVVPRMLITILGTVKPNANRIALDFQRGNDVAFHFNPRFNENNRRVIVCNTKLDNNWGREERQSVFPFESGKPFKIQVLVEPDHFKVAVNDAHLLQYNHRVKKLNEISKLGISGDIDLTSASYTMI

With `OC[C@H]1O[C@H](Sc2cnc(C(F)(F)F)c(Br)c2)[C@H](O)[C@@H](n2cc(-c3nc(Cl)cs3)nn2)[C@H]1O` [Example 1, 5-Bromo-6-trifluoromethyl-pyridine-3-yl 3-[4-(4-chlorothiazol-2-yl)-1H-1,2,3-triazol-1-yl]-3-deoxy-1-thio-α-D-galactopyranoside], the Kd at Galectin-1 came to 110 nM; on Galectin-3, 250 nM.
Turning to `OC[C@H]1O[C@H](Sc2cnc(C(F)(F)F)c(Br)c2)[C@H](O)[C@@H](n2cc(-c3nc(Br)cs3)nn2)[C@H]1O` [Example 2, 5-Bromo-6-trifluoromethyl-pyridine-3-yl 3-[4-(4-bromothiazol-2-yl)-1H-1,2,3-triazol-1-yl]-3-deoxy-1-thio-α-D-galactopyranoside], the results for the Kd at Galectin-1 and at Galectin-3 were 160 nM and 580 nM, respectively.
The like results for `N#Cc1ncc(S[C@H]2O[C@H](CO)[C@H](O)[C@H](n3cc(-c4nc(Cl)cs4)nn3)[C@H]2O)cc1Cl` [Example 3, 5-Chloro-6-cyano-pyridine-3-yl 3-[4-(4-chlorothiazol-2-yl)-1H-1,2,3-triazol-1-yl]-3-deoxy-1-thio-α-D-galactopyranoside] were, in that order, 95 nM and 420 nM.
For the compound `N#Cc1ncc(Br)cc1S[C@H]1O[C@H](CO)[C@H](O)[C@H](n2cc(-c3nc(Cl)cs3)nn2)[C@H]1O` [Example 4, 5-Bromo-2-cyano-pyridine-3-yl 3-[4-(4-chlorothiazol-2-yl)-1H-1,2,3-triazol-1-yl]-3-deoxy-1-thio-α-D-galactopyranoside], the Kd on Galectin-1 was determined as 85 nM; on Galectin-3, 200 nM.
The like results for `N#Cc1ncc(Cl)cc1S[C@H]1O[C@H](CO)[C@H](O)[C@H](n2cc(-c3nc(Cl)cs3)nn2)[C@H]1O` [Example 5, 5-Chloro-2-cyano-pyridine-3-yl 3-[4-(4-chlorothiazol-2-yl)-1H-1,2,3-triazol-1-yl]-3-deoxy-1-thio-α-D-galactopyranoside] were, in that order, 95 nM and 220 nM.
In the case of `N#Cc1ncc(S[C@H]2O[C@H](CO)[C@H](O)[C@H](n3cc(-c4nc(Cl)cs4)nn3)[C@H]2O)cc1Br` [Example 6, 5-Bromo-6-cyano-3-pyridyl 3-[4-(4-chlorothiazol-2-yl)-1H-1,2,3-triazol-1-yl]-3-deoxy-1-thio-α-D-galactopyranoside], the values for the Kd on Galectin-1 and at Galectin-3 were 68 nM and 250 nM, respectively.
For the compound `OC[C@H]1O[C@H](Sc2ccc(Cl)c(Cl)c2)[C@H](O)[C@@H](n2cc(-c3csc(Cl)n3)nn2)[C@H]1O` [Example 7, 3,4-Dichlorophenyl 3-[4-(2-chlorothiazol-4-yl)-1H-1,2,3-triazol-1-yl]-3-deoxy-1-thio-α-D-galactopyranoside], the results for the Kd at Galectin-1 and at Galectin-3 were 490 nM and 1400 nM, respectively.
The like results for `OC[C@H]1O[C@H](Sc2ccc(Cl)c(Cl)c2)[C@H](O)[C@@H](n2cc(-c3csc(O)n3)nn2)[C@H]1O` [Example 12, 3,4-Dichlorophenyl 3-deoxy-3-[4-(2-hydroxythiazol-4-yl)-1H-1,2,3-triazol-1-yl]-1-thio-α-D-galactopyranoside] were, in that order, 58 nM and 8600 nM.
The like results for `N#Cc1ncc(S[C@H]2O[C@H](CO)[C@H](O)[C@H](n3cc(-c4csc(O)n4)nn3)[C@H]2O)cc1Cl` [Example 13, 5-Chloro-6-cyano-pyridine-3-yl 3-deoxy-3-[4-(2-hydroxythiazol-4-yl)-1H-1,2,3-triazol-1-yl]-1-thio-α-D-galactopyranoside] were, in that order, 38 nM and 8000 nM.
The like results for `N#Cc1ncc(Br)cc1S[C@H]1O[C@H](CO)[C@H](O)[C@H](n2cc(-c3csc(O)n3)nn2)[C@H]1O` [Example 14, 5-Bromo-2-cyano-pyridine-3-yl 3-deoxy-3-[4-(2-hydroxythiazol-4-yl)-1H-1,2,3-triazol-1-yl]-1-thio-α-D-galactopyranoside] were, in that order, 33 nM and 2600 nM.
As to `N#Cc1ncc(S[C@H]2O[C@H](CO)[C@H](O)[C@H](n3cc(-c4csc(O)n4)nn3)[C@H]2O)cc1Br` [Example 15, 5-Bromo-6-cyano-3-pyridyl 3-deoxy-3-[4-(2-hydroxythiazol-4-yl)-1H-1,2,3-triazol-1-yl]-1-thio-α-D-galactopyranoside], the figures for the Kd at Galectin-1 and on Galectin-3 were 19 nM and 2800 nM, respectively.
The like results for `N#Cc1ncc(Cl)cc1S[C@H]1O[C@H](CO)[C@H](O)[C@H](n2cc(-c3csc(O)n3)nn2)[C@H]1O` [Example 16, 5-Chloro-2-cyano-3-pyridyl 3-deoxy-3-[4-(2-hydroxythiazol-4-yl)-1H-1,2,3-triazol-1-yl]-1-thio-α-D-galactopyranoside] were, in that order, 6 nM and 2200 nM.
With `OC[C@H]1O[C@H](Sc2cnc(C(F)(F)F)c(Cl)c2)[C@H](O)[C@@H](n2cc(-c3csc(O)n3)nn2)[C@H]1O` [Example 17, 5-Chloro-6-trifluoromethyl-pyridin-3-yl 3-deoxy-3-[4-(2-hydroxythiazol-4-yl)-1H-1,2,3-triazol-1-yl]-1-thio-α-D-galactopyranoside], the Kd at Galectin-1 worked out at 28 nM; on Galectin-3, 2800 nM.
The like results for `OC[C@H]1O[C@H](Sc2cc(Cl)c(F)c(Cl)c2)[C@H](O)[C@@H](n2cc(-c3csc(O)n3)nn2)[C@H]1O` [Example 18, 3,5-Dichloro-4-fluoro-phenyl 3-deoxy-3-[4-(2-hydroxythiazol-4-yl)-1H-1,2,3-triazol-1-yl]-1-thio-α-D-galactopyranoside] were, in that order, 27 nM and 9700 nM.
The like results for `OC[C@H]1O[C@H](Sc2cc(Cl)c(Cl)c(Cl)c2)[C@H](O)[C@@H](n2cc(-c3csc(O)n3)nn2)[C@H]1O` [Example 20, 3,4,5-trichlorophenyl 3-deoxy-3-[4-(2-hydroxythiazol-4-yl)-1H-1,2,3-triazol-1-yl]-1-thio-α-D-galactopyranoside] were, in that order, 56 nM and 6000 nM.
In the case of `OC[C@H]1O[C@H](Sc2cc(Br)c(F)c(Br)c2)[C@H](O)[C@@H](n2cc(-c3csc(O)n3)nn2)[C@H]1O` [Example 21, 3,5-dibromo-4-fluorophenyl 3-deoxy-3-[4-(2-hydroxythiazol-4-yl)-1H-1,2,3-triazol-1-yl]-1-thio-α-D-galactopyranoside], the Kd at Galectin-1 was 50 nM; at Galectin-3, 4600 nM.
The like results for `N#Cc1ccc(S[C@H]2O[C@H](CO)[C@H](O)[C@H](n3cc(-c4csc(O)n4)nn3)[C@H]2O)cc1Br` [Example 22, 3-Bromo-4-cyanophenyl 3-deoxy-3-[4-(2-hydroxythiazol-4-yl)-1H-1,2,3-triazol-1-yl]-1-thio-α-D-galactopyranoside] were, in that order, 63 nM and 6000 nM.
The like results for `OC[C@H]1O[C@H](Sc2cnc(C(F)(F)F)c(Br)c2)[C@H](O)[C@@H](n2cc(-c3csc(O)n3)nn2)[C@H]1O` [Example 23, 5-Bromo-6-trifluoromethyl-3-pyridyl 3-deoxy-3-[4-(2-hydroxythiazol-4-yl)-1H-1,2,3-triazol-1-yl]-1-thio-α-D-galactopyranoside] were, in that order, 32 nM and 3100 nM.
Consider `OC[C@H]1O[C@H](Sc2ccc(C(F)(F)F)c(Cl)c2)[C@H](O)[C@@H](n2cc(-c3csc(O)n3)nn2)[C@H]1O` [Example 24, 3-Chloro-4-trifluoromethylphenyl 3-deoxy-3-[4-(2-hydroxythiazol-4-yl)-1H-1,2,3-triazol-1-yl]-1-thio-α-D-galactopyranoside], for which the Kd worked out at 71 nM on Galectin-1 and 6500 nM on Galectin-3.
The like results for `Cc1ccc(S[C@H]2O[C@H](CO)[C@H](O)[C@H](n3cc(-c4csc(O)n4)nn3)[C@H]2O)cc1Cl` [Example 26, 3-Chloro-4-methylphenyl 3-deoxy-3-[4-(2-hydroxythiazol-4-yl)-1H-1,2,3-triazol-1-yl]-1-thio-α-D-galactopyranoside] were, in that order, 82 nM and 6600 nM.
Consider `O=C(O)c1ncc(Cl)cc1S[C@H]1O[C@H](CO)[C@H](O)[C@H](n2cc(-c3csc(O)n3)nn2)[C@H]1O` [Example 28, 2-carboxy-5-chloropyridyl 3-deoxy-3-[4-(2-hydroxythiazol-4-yl)-1H-1,2,3-triazol-1-yl]-1-thio-α-D-galactopyranoside], for which the Kd on Galectin-1 came to 46 nM; at Galectin-3 it was 5700 nM.
On to `OC[C@H]1O[C@H](Sc2cnc(C(F)(F)F)c(Br)c2)[C@H](O)[C@@H](n2cc(-c3nc(Cl)c(Cl)s3)nn2)[C@H]1O` [Example 29, 5-Bromo-6-trifluoromethyl-pyridine-3-yl 3-deoxy-3-[4-(4,5-dichlorothiazol-2-yl)-1H-1,2,3-triazol-1-yl]-1-thio-α-D-galactopyranoside], for which the Kd was determined as 390 nM on Galectin-1 and 69 nM on Galectin-3.
As for `OC[C@H]1O[C@H](Sc2cc(Cl)c(Cl)cc2F)[C@H](O)[C@@H](n2cc(-c3csc(O)n3)nn2)[C@H]1O` [Example 31, 3,4-Dichloro-6-fluoro-phenyl 3-deoxy-3-[4-(2-hydroxythiazol-4-yl)-1H-1,2,3-triazol-1-yl]-1-thio-α-D-galactopyranoside], the Kd is 13 nM at Galectin-1 and 4600 nM at Galectin-3.
For `CN(C)C(=O)c1ccc(Cl)cc1S[C@H]1OC(CO)[C@H](O)[C@H](n2cc(-c3csc(O)n3)nn2)C1O` (stereo partly drawn) [Example 32, 4-Chloro-N,N′-dimethylbenzamide-2-yl 3-deoxy-3-[4-(2-hydroxythiazol-4-yl)-1H-1,2,3-triazol-1-yl]-1-thio-α-D-galactopyranoside], the Kd was found to be 44 nM at Galectin-1 and 2100 nM at Galectin-3.
